Measurements: patent publication US7897638B2, “Synthesis of nitrodibenzylfuran chromophore for photodeprotection of organic molecules” (Philadelphia Health & Education Corporation, priority 2005, dated 2011)
Like-named read-outs stand apart in the source and are kept apart here.

What was measured:
[1] = widely used, commercially available caged compounds; cited from earlier work
Two-photon photolysis = assay type: physicochemical
Description: Two-photon photolysis (2PP) of a solution contains MNI-glutamate (1.4 mM) and NDBF-EGTA (0.1 mM), by raster scanning the solution (256 pulses, 4 ms each, 300 mW).

[2] = known standard; cited from earlier work
[3] = Quantum yield of photolysis by comparison with MNI-glutamate, HPLC; assay type: physicochemical; settings: photolyzed at 350 nm, relative to MNI-glutamate; listed as NDBF Calcium
From the text: Inventors measured the quantum yield of photolysis of NDBF-EGTA by comparison with a known standard, 4-methoxy-7-nitroindolinyl(MNI)-glutamate (Matsuzaki, et al., 1999). A solution containing NDBF-EGTA and MNI-glutamate was photolyzed at 350 nm, in order to determine the relative % photolysis of the two caged compounds. The concentrations of the two compounds were set so that their chromophores would absorb the same amount of light (MNI/NDBF ratio 3.7:1), and so that the total optical density was 0.4. Under these conditions the same number of excited states are created simultaneously for both cages, making determination of the quantum for NBDF-EGTA more reliable. As a control, both cages were photolyzed separately to check that there was no interference from simultaneous photolysis. Inosine was also included in the photolysis reaction mixture, as a photochemically inert standard. MNI-glutamate has a quantum yield of photolysis of 0.085. […] Saturating [Ca] had no effect on this value.

[4] = Photochemical properties of caged compounds (Table 1); assay type: physicochemical; settings: for ε/M^−1 cm^−1 (extinction coefficient): NDBF chromophore; for ε · φ (efficiency of use of the incident light): product of extinction coefficient and quantum yield
From the text: The extinction coefficient (ε) and the quantum yield (φ) are the two photochemical properties that define the efficiency of a chromophore. The former is an absolute value of a chromophore; the latter depends upon the exact nature of the photolyzed bond, as well as the chromophore itself. The four most widely used caged compounds (ATP, IP3, glutamate, Ca) with the ortho-nitrobenzyl chromophore have ε and φ in the range of 430-970 and 0.14-0.63. The product (ε·φ) for each caged compound defines the efficiency of use of the incident light.

Compound | Rate/s^−1 (rate of release) [1] | φ (quantum yield) [1] | 2-photon cross-section (Two-photon photolysis) | quantum yield of photolysis [2] | φ (quantum yield of photolysis) [3] | ε/M^−1 cm^−1 (extinction coefficient) [4] | Rate/s^−1 (rate of release) ([4]; NDBF-caged calcium) | ε · φ (efficiency of use of the incident light) [4]
COc1cc(COP(=O)(O)OP(=O)(O)OP(=O)(O)OCC2OC(n3cnc4c(N)ncnc43)C(O)C2O)c([N+](=O)[O-])cc1OC (centres unmarked) [DMNB ATP] | 18 s⁻¹ | 0.07 | – | – | – | – | – | –
COc1cc(COP2(=O)OCC3OC(n4cnc5c(N)ncnc54)C(O)C3O2)c([N+](=O)[O-])cc1OC (centres unmarked) [DMNB cAMP] | 300 s⁻¹ | 0.05 | – | – | – | – | – | –
COc1ccc([N+](=O)[O-])c2c1CCN2C(=O)CC[C@H](N)C(=O)O [MNI-glutamate, 4-methoxy-7-nitroindolinyl(MNI)-glutamate, reference compound] | – | – | 0.06 GM | 0.085 | – | – | – | –
NDBF-EGTA | – | – | 0.3-0.6 GM | – | 0.6 | 18,400 M^−1 cm^−1 | 25,000 s^−1 | 11,000
nitrodibenzylfuran [NDBF] | – | – | at least 0.3 GM | – | – | 18,400 M^−1 cm^−1 | – | above 10,000
